Source: ChEMBL document CHEMBL1909294, “Translating clinical findings into knowledge in drug safety evaluation--drug induced liver injury prediction system (DILIps)” (PLoS Comput Biol, 2011)
Where a SMILES comes first, the peptide text is derived from it. Bridges are numbered along the chain shown (N, C = ends). [ ]: non-standard residue; d: D form. The star is where a group is joined. Ileψ(thiazoline)Cys = CC[C@H](C)[C@H](N)C1=N[C@H](C(=O)*)CS1; dOrn = NCCC[C@@H](N)C(=O)O

Columns and labels:
Hepatotoxicity [1] = test system: Hepatotoxicity;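 on HepSE bilirubinemia: bilirubinemia hepatic side effect score drawn from the DILIps training data, a prediction system for drug-induced liver injury; call rule not given here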;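 on HepSE cholecystitis: Cholecystitis-related hepatic side effect score drawn from the DILIps (drug-induced liver injury prediction) training data set; call rule not given here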;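 on HepSE cholelithiasis: hepatic side effect score for cholelithiasis, drawn from the DILIps training data for predicting drug-induced liver injury; call rule not given here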;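 on HepSE cirrhosis: cirrhosis hepatic side effect score taken from the DILIps (drug-induced liver injury prediction) training set; call rule not given here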;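 on HepSE elevated liver function tests: hepatic side effect score for raised liver function tests, as recorded in the DILIps training set used for predicting drug-induced liver injury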; on HepSE hepatic failure: call rule not given here;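 on HepSE hepatomegaly: hepatic side effect score for hepatomegaly, taken from the training set of the DILIps drug-induced liver injury prediction system; call rule not given here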
Hepatotoxicity [2] = test system: Hepatotoxicity; remark: listed apart in the source;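 on HepSE bilirubinemia: bilirubinemia hepatic side effect score drawn from the DILIps training data, a prediction system for drug-induced liver injury; call rule not given here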;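 on HepSE cholecystitis: Cholecystitis-related hepatic side effect score drawn from the DILIps (drug-induced liver injury prediction) training data set; call rule not given here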;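 on HepSE cholelithiasis: hepatic side effect score for cholelithiasis, drawn from the DILIps training data for predicting drug-induced liver injury; call rule not given here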;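 on HepSE cirrhosis: cirrhosis hepatic side effect score taken from the DILIps (drug-induced liver injury prediction) training set; call rule not given here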;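 on HepSE elevated liver function tests: hepatic side effect score for raised liver function tests, as recorded in the DILIps training set used for predicting drug-induced liver injury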; on HepSE hepatic failure: call rule not given here;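 on HepSE hepatomegaly: hepatic side effect score for hepatomegaly, taken from the training set of the DILIps drug-induced liver injury prediction system; call rule not given here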
Hepatotoxicity [3] = test system: Hepatotoxicity; remark: listed apart in the source;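 on HepSE bilirubinemia: bilirubinemia hepatic side effect score drawn from the DILIps training data, a prediction system for drug-induced liver injury; call rule not given here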;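 on HepSE cholecystitis: Cholecystitis-related hepatic side effect score drawn from the DILIps (drug-induced liver injury prediction) training data set; call rule not given here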;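 on HepSE cholelithiasis: hepatic side effect score for cholelithiasis, drawn from the DILIps training data for predicting drug-induced liver injury; call rule not given here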;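 on HepSE cirrhosis: cirrhosis hepatic side effect score taken from the DILIps (drug-induced liver injury prediction) training set; call rule not given here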;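 on HepSE elevated liver function tests: hepatic side effect score for raised liver function tests, as recorded in the DILIps training set used for predicting drug-induced liver injury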; on HepSE hepatic failure: call rule not given here
Hepatotoxicity [4] = test system: Hepatotoxicity; remark: listed apart in the source;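 on HepSE bilirubinemia: bilirubinemia hepatic side effect score drawn from the DILIps training data, a prediction system for drug-induced liver injury; call rule not given here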;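 on HepSE cholecystitis: Cholecystitis-related hepatic side effect score drawn from the DILIps (drug-induced liver injury prediction) training data set; call rule not given here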;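 on HepSE cholelithiasis: hepatic side effect score for cholelithiasis, drawn from the DILIps training data for predicting drug-induced liver injury; call rule not given here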;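 on HepSE cirrhosis: cirrhosis hepatic side effect score taken from the DILIps (drug-induced liver injury prediction) training set; call rule not given here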;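 on HepSE elevated liver function tests: hepatic side effect score for raised liver function tests, as recorded in the DILIps training set used for predicting drug-induced liver injury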; on HepSE hepatic failure: call rule not given here
Hepatotoxicity [5] = test system: Hepatotoxicity; remark: listed apart in the source; on HepSE hepatic failure: call rule not given here
Hepatotoxicity [6] = test system: Hepatotoxicity; remark: listed apart in the source; on HepSE hepatic failure: call rule not given here
Hepatotoxicity [7] = test system: Hepatotoxicity; remark: listed apart in the source
Hepatotoxicity [8] = test system: Hepatotoxicity; remark: listed apart in the source
Hepatotoxicity [9] = test system: Hepatotoxicity; remark: listed apart in the source
Hepatotoxicity [10] = test system: Hepatotoxicity; remark: listed apart in the source
Hepatotoxicity [11] = test system: Hepatotoxicity; remark: listed apart in the source
Hepatotoxicity [12] = test system: Hepatotoxicity; remark: listed apart in the source
Hepatotoxicity [13] = test system: Hepatotoxicity; remark: listed apart in the source
Hepatotoxicity [14] = test system: Hepatotoxicity; remark: listed apart in the source

SMILES	HepSE_bilirubinemia (Hepatotoxicity [1])	HepSE_cholecystitis (Hepatotoxicity [2])	HepSE_cholelithiasis (Hepatotoxicity [3])	HepSE_cirrhosis (Hepatotoxicity [4])	HepSE_elevated liver function tests (Hepatotoxicity [5])	HepSE_hepatic failure (Hepatotoxicity [6])	HepSE_hepatic necrosis (Hepatotoxicity [7])	HepSE_hepatitis (Hepatotoxicity [8])	HepSE_hepatomegaly (Hepatotoxicity [9])	HepSE_jaundice (Hepatotoxicity [10])	HepSE_liver disease (Hepatotoxicity [11])	HepSE_liver fatty (Hepatotoxicity [12])	HepSE_liver function tests abnormal (Hepatotoxicity [13])	HepSE_Combined Scores (Hepatotoxicity [14])	also measured
COc1ccc([C@@H]2Sc3ccccc3N(CCN(C)C)C(=O)[C@@H]2OC(C)=O)cc1 [DILTIAZEM]	0	0	0	0	0	0	0	0	0	0	0	0	0	0	–
NCCCNCCSP(=O)(O)O [AMIFOSTINE]	–	–	–	–	–	–	–	–	–	–	–	–	–	–	HepSE_bilirubinemia (Hepatotoxicity [1]; Liver): 0; HepSE_cholecystitis (Hepatotoxicity [2]; Liver): 0; HepSE_cholelithiasis (Hepatotoxicity [3]; Liver): 0; HepSE_cirrhosis (Hepatotoxicity [4]; Liver): 0; HepSE_elevated liver function tests (Hepatotoxicity [5]; Liver): 0; HepSE_hepatic failure (Hepatotoxicity [6]; Liver): 0; HepSE_hepatic necrosis (Hepatotoxicity [7]; Liver): 0; HepSE_hepatitis (Hepatotoxicity [8]; Liver): 0; HepSE_hepatomegaly (Hepatotoxicity [9]; Liver): 0; HepSE_jaundice (Hepatotoxicity [10]; Liver): 0; HepSE_liver disease (Hepatotoxicity [11]; Liver): 0; HepSE_liver fatty (Hepatotoxicity [12]; Liver): 0; HepSE_liver function tests abnormal (Hepatotoxicity [13]; Liver): 0; HepSE_Combined Scores (Hepatotoxicity [14]; Liver): 0
COc1c(N2CCNC(C)C2)c(F)cc2c(=O)c(C(=O)O)cn(C3CC3)c12 (configuration not stated) [GATIFLOXACIN]	0	0	0	0	0	0	0	1	0	0	0	0	0	1	–
CC[C@H](C)[C@H](N)C1=N[C@H](C(=O)N[C@@H](CC(C)C)C(=O)N[C@H](CCC(=O)O)C(=O)N[C@H](C(=O)N[C@H]2CCCCNC(=O)[C@H](CC(N)=O)NC(=O)[C@@H](CC(=O)O)NC(=O)[C@H](Cc3cnc[nH]3)NC(=O)[C@@H](Cc3ccccc3)NC(=O)[C@H]([C@@H](C)CC)NC(=O)[C@@H](CCCN)NC2=O)[C@@H](C)CC)CS1 [BACITRACIN] ({Ileψ(thiazoline)Cys}-L[dE]IK[dOrn]I[dF]H[dD]N; lactam 4-C)	0	0	0	0	0	0	0	0	0	0	0	0	0	0	–
O=[N+]([O-])OCC(CO[N+](=O)[O-])O[N+](=O)[O-] [NITROGLYCERIN]	0	0	0	0	0	0	0	0	0	0	0	0	0	0	–
Cc1cc(C(=O)NNCc2ccccc2)no1 [ISOCARBOXAZID]	0	0	0	0	0	0	0	0	0	0	0	0	0	0	–
C=CCC1(C(C)CCC)C(=O)NC(=O)NC1=O (configuration not stated) [SECOBARBITAL]	0	0	0	0	0	0	0	0	0	0	0	0	0	0	–
CC(=O)S[C@@H]1CC2=CC(=O)CC[C@]2(C)[C@H]2CC[C@@]3(C)[C@@H](CC[C@@]34CCC(=O)O4)[C@H]12 [SPIRONOLACTONE]	0	0	0	0	0	0	0	0	0	0	0	0	0	0	–
Cc1ccc(C)c(OCCCC(C)(C)C(=O)O)c1 [GEMFIBROZIL]	0	1	1	0	0	0	0	0	0	1	0	0	1	4	–
Nc1nc(Cl)nc2c1ncn2[C@@H]1O[C@H](CO)[C@@H](O)[C@@H]1F [CLOFARABINE]	1	0	0	0	0	0	0	0	1	1	0	0	0	3	–
C=CCC1(C(C)C#CCC)C(=O)N=C(O)N(C)C1=O (configuration not stated) [METHOHEXITAL]	0	0	0	0	0	0	0	0	0	0	0	0	1	1	–
COCCCC/C(=N\OCCN)c1ccc(C(F)(F)F)cc1 [FLUVOXAMINE]	0	1	1	0	0	0	0	1	0	1	0	0	1	5	–
CN1CCC[C@H]1c1cccnc1 [NICOTINE]	–	–	–	–	–	–	–	–	–	–	–	–	–	–	HepSE_bilirubinemia (Hepatotoxicity [1]; Liver): 0; HepSE_cholecystitis (Hepatotoxicity [2]; Liver): 0; HepSE_cholelithiasis (Hepatotoxicity [3]; Liver): 0; HepSE_cirrhosis (Hepatotoxicity [4]; Liver): 0; HepSE_elevated liver function tests (Hepatotoxicity [5]; Liver): 0; HepSE_hepatic failure (Hepatotoxicity [6]; Liver): 0; HepSE_hepatic necrosis (Hepatotoxicity [7]; Liver): 0; HepSE_hepatitis (Hepatotoxicity [8]; Liver): 0; HepSE_hepatomegaly (Hepatotoxicity [9]; Liver): 0; HepSE_jaundice (Hepatotoxicity [10]; Liver): 0; HepSE_liver disease (Hepatotoxicity [11]; Liver): 0; HepSE_liver fatty (Hepatotoxicity [12]; Liver): 0; HepSE_liver function tests abnormal (Hepatotoxicity [13]; Liver): 0; HepSE_Combined Scores (Hepatotoxicity [14]; Liver): 0
